Earlier results on two compounds are cited in patent publication US20050064023A1, “Compound” (priority 2001, published 2005).

The conditions of this data set: in combination with DOPE.

Regarding “1,2-dioleyl-sn-glycero-3-succinyl-2-hydroxyethyl-disulfide omithine [DOGSDSO]”, the “enhancement compared to the non-disulfide analogs” value was “up to 50 times”. Turning to `CC(C)CCC[C@@H](C)[C@H]1CC[C@H]2[C@@H]3CC=C4C[C@@H](OC(=O)CSSCC(=O)NCCN(CCN)CCN)CC[C@]4(C)[C@H]3CC[C@]12C` [CHDTAEA, cholesteryl-hemi-dithio-diglycolyl-tris(aminoethyl)-amine], the “cellular toxicity compared to DC-Chol liposomes” value was “decrease of cellular toxicity” and the “transfection efficiency compared to DC-Chol liposomes” value is reported as “increase of transfection efficiency”.
